Measurements taken from DBAASP.
≈ marks a conversion by molar mass, not a printed value.

Columns and labels:
Test in all cases: ≥ marks a high value that may be exact or a test limit, other limits are often not marked, values filed in µg/mL are converted to µM
[1] = system: Staphylococcus epidermidis RP62A
[2] = system: Staphylococcus aureus ATCC 6538
[3] = system: Staphylococcus aureus ATCC 25923
[4] = system: Staphylococcus aureus ATCC 29213
[5] = system: Pseudomonas aeruginosa ATCC 15442
[6] = system: Candida albicans ATCC 90028
Candida krusei ATCC 6258 = system: Candida krusei ATCC 6258
Candida albicans SC5314 = system: Candida albicans SC5314
[7] = system: Candida parapsilosis ATCC 22019
[8] = system: Enterococcus faecium ATCC 700221
[9] = system: Escherichia coli ATCC 25922
[10] = system: Staphylococcus aureus ATCC 33591
[11] = system: Pseudomonas aeruginosa ATCC 27853
[12] = system: Klebsiella pneumoniae ATCC 700603
[13] = system: Acinetobacter baumannii ATCC BAA-1605
[14] = system: Listeria monocytogenes CMCC 54002
[15] = system: Salmonella typhimurium CMCC 50013
[16] = system: Shigella dysenteriae CMCC 51302
Streptococcus mutans = system: Streptococcus mutans
[17] = system: Pseudomonas syringae pv. syringae EPS 94
[18] = system: Erwinia amylovora PMV 6076
[19] = system: Bacillus subtilis KCTC 1998
[20] = system: Pseudomonas aeruginosa ATCC 15692
[21] = system: Escherichia coli CCARM 1229
[22] = system: Staphylococcus aureus KCTC 1621
[23] = system: Escherichia coli KCTC 1682
[24] = system: Salmonella typhimurium KCTC 1926
[25] = system: Acinetobacter baumannii CCARM 12035
[26] = system: Salmonella typhimurium CCARM 8009
[27] = system: Pseudomonas aeruginosa KCTC 1637
[28] = system: Bacillus subtilis KCTC 3068
[29] = system: Pseudomonas aeruginosa CCARM 2095
[30] = system: Enterococcus faecalis KCTC 2011

Work on `CC(C)C[C@H](NC(=O)[C@H](CCCCN)NC(=O)[C@H](CO)NC(=O)[C@H](CCCCN)NC(=O)[C@H](CC(=O)O)NC(=O)[C@H](Cc1ccccc1)NC(=O)[C@H](CO)NC(=O)[C@H](C)NC(=O)[C@@H](NC(=O)[C@@H](N)CCC(=O)O)C(C)C)C(=O)N[C@@H](CCCCN)C(=O)O` [EVASFDKSKLK] yielded an MIC [1] of no less than 4950 µM, an MIC [2] of 9990 µM (≈ 12500 µg/mL) and an MIC [3] of 9990 µM (≈ 12500 µg/mL). The MIC [4] was 9990 µM (≈ 12500 µg/mL) and the MIC [5] was no less than 9990 µM.

With `CC[C@H](C)[C@H](NC(=O)CN)C(=O)N[C@@H](Cc1c[nH]c2ccccc12)C(=O)N[C@@H](CCCCN)C(=O)N[C@@H](CCCCN)C(=O)N[C@@H](Cc1c[nH]c2ccccc12)C(=O)N[C@H](C(=O)N[C@@H](CCCCN)C(=O)N[C@@H](CCCCN)C(=O)N[C@@H](Cc1c[nH]c2ccccc12)C(=O)N[C@@H](CC(C)C)C(=O)N[C@@H](CCCCN)C(=O)N[C@@H](CCCCN)C(=O)N[C@@H](CC(C)C)C(=O)N[C@@H](CCCCN)C(=O)N[C@@H](CC(N)=O)C(=O)N[C@@H](CC(C)C)C(=O)N[C@@H](Cc1ccccc1)C(N)=O)[C@@H](C)CC` [GIWKKWIKKWLKKLKNLF] the MIC [6] was 27.1 µM (≈ 64 µg/mL), the MIC (Candida krusei ATCC 6258) was 6.79 µM (≈ 16 µg/mL) and the MIC (Candida albicans SC5314) was 13.6 µM (≈ 32 µg/mL). For the same compound, the MIC [7] was 13.6 µM (≈ 32 µg/mL).

`CC[C@H](C)[C@H](NC(=O)[C@H](CCCCN)NC(=O)[C@H](CCCCN)NC(=O)[C@H](CC(C)C)NC(=O)[C@H](CC(C)C)NC(=O)[C@H](CCCCN)NC(=O)[C@H](CCCCN)NC(=O)[C@@H](NC(=O)[C@@H](NC(=O)[C@H](CC(=O)O)NC(=O)[C@H](Cc1ccccc1)NC(=O)[C@H](CC(C)C)NC(=O)CN)C(C)C)[C@@H](C)CC)C(=O)N[C@@H](CCCCN)C(=O)NCC(=O)N[C@@H](CC(C)C)C(N)=O` [GLFDVIKKLLKKIKGL] gave an MIC [8] of 1.6 µM (≈ 2.9 µg/mL), an MIC [9] of 3.1 µM (≈ 5.62 µg/mL) and an MIC [10] of 3.1 µM (≈ 5.62 µg/mL). For the same compound, the MIC [11] was 12.5 µM (≈ 22.7 µg/mL).

For `CC[C@H](C)[C@H](NC(=O)[C@@H](N)CCC(=O)O)C(=O)N[C@@H](CCC(=O)O)C(=O)N[C@@H](CCCCN)C(=O)N[C@@H](Cc1ccccc1)C(=O)N[C@@H](CC(=O)O)C(=O)N[C@@H](CCCCN)C(=O)N[C@@H](CO)C(=O)N[C@@H](CCCCN)C(=O)N[C@@H](CC(C)C)C(=O)N[C@@H](CCCCN)C(=O)O` [EIEKFDKSKLK], the MIC [1] was no less than 9160 µM, the MIC [2] was 9160 µM (≈ 12500 µg/mL) and the MIC [3] was 9160 µM (≈ 12500 µg/mL). For the same compound, the MIC [4] was 4540 µM (≈ 6200 µg/mL) and the MIC [5] was no less than 9160 µM.

With `CC[C@H](C)[C@H](NC(=O)[C@H](CCCN=C(N)N)NC(=O)[C@H](CCCCN)NC(=O)[C@H](Cc1ccccc1)NC(=O)[C@H](CC(C)C)NC(=O)[C@H](CCCCN)NC(=O)[C@@H](N)CCCN=C(N)N)C(=O)N[C@@H](CC(C)C)C(=O)N[C@@H](CCCCN)C(=O)N[C@@H](Cc1ccc(O)cc1)C(=O)N[C@@H](CC(C)C)C(N)=O` [RKLFKRILKYL] the MIC [12] was 93 µM (≈ 137 µg/mL), the MIC [8] was no less than 186 µM and the MIC [9] was 186 µM (≈ 275 µg/mL). It also gave an MIC [10] of no less than 93 µM, an MIC [11] of 93 µM (≈ 137 µg/mL) and an MIC [13] of no less than 46.7 µM.

`CC(C)C[C@H](NC(=O)CN)C(=O)N[C@@H](CCCN=C(N)N)C(=O)N[C@@H](CCCN=C(N)N)C(=O)N[C@@H](C)C(=O)N[C@@H](CC(C)C)C(=O)N[C@@H](CC(C)C)C(=O)N[C@@H](CCCN=C(N)N)C(=O)N[C@@H](CC(C)C)C(=O)N[C@@H](CC(C)C)C(=O)N[C@@H](CCCN=C(N)N)C(=O)N[C@@H](CO)C(=O)N[C@@H](CC(C)C)C(=O)N[C@@H](CCCN=C(N)N)C(=O)N[C@@H](CCCN=C(N)N)C(=O)N[C@@H](CC(C)C)C(=O)N[C@@H](CC(C)C)C(=O)N[C@@H](CC(C)C)C(=O)N[C@@H](CCCN=C(N)N)C(=O)N[C@@H](C)C(=O)O` [GLRRALLRLLRSLRRLLLRA] was tested, and the MIC [14] was 16 µM (≈ 38.7 µg/mL), the MIC [9] was 8 µM (≈ 19.3 µg/mL) and the MIC [15] was 4 µM (≈ 9.66 µg/mL). For the same compound, the MIC [16] was 8 µM (≈ 19.3 µg/mL), the MIC [4] was 32 µM (≈ 77.3 µg/mL) and the MIC (Streptococcus mutans) was 8 µM (≈ 19.3 µg/mL).

With `CC[C@H](C)[C@H](NC(=O)[C@H](CCCCN)NC(=O)[C@H](CCCCN)NC(=O)[C@H](Cc1ccccc1)NC(=O)[C@H](CC(C)C)NC(=O)[C@H](CCCCN)NC(=O)[C@H](CCCCN)NC(=O)[C@H](C)NC(=O)[C@@H]1CCCN1C(=O)CNC(=O)[C@H](C)NC(=O)[C@H](CC(C)C)NC(=O)[C@H](Cc1ccc(O)cc1)NC(=O)[C@H](CCCCN)NC(=O)[C@H](CC(C)C)NC(=O)[C@@H](NC(=O)[C@H](CCCCN)NC(=O)[C@H](CCCCN)NC(=O)[C@H](Cc1ccccc1)NC(=O)[C@H](CC(C)C)NC(=O)[C@H](CCCCN)NC(=O)[C@@H](N)CCCCN)[C@@H](C)CC)C(=O)N[C@@H](CC(C)C)C(=O)N[C@@H](CCCCN)C(=O)N[C@@H](Cc1ccc(O)cc1)C(=O)N[C@@H](CC(C)C)C(=O)O` [KKLFKKILKYLAGPAKKLFKKILKYL] the MIC [17] was 3.54 µM (≈ 11 µg/mL) and the MIC [18] was 3.54 µM (≈ 11 µg/mL).

In the case of `CC[C@H](C)[C@H](NC(=O)[C@H](CCCCN)NC(=O)[C@H](CO)NC(=O)[C@@H]1CCCN1C(=O)[C@H](CC(C)C)NC(=O)[C@H](CCCCN)NC(=O)[C@@H]1CCCN1C(=O)[C@H](CC(C)C)NC(=O)[C@H](CCCN=C(N)N)NC(=O)[C@H](CCCCN)NC(=O)[C@H](Cc1ccccc1)NC(=O)[C@@H](NC(=O)[C@H](CCCCN)NC(=O)[C@H](CCCCN)NC(=O)[C@H](C)N)C(C)C)C(=O)N[C@@H](Cc1c[nH]c2ccccc12)C(=O)N[C@@H](CC(N)=O)C(=O)N[C@@H](Cc1c[nH]c2ccccc12)C(=O)N[C@@H](CCCCN)C(N)=O` [AKKVFKRLPKLPSKIWNWK], the MIC [19] is reported as 1 µM (≈ 2.37 µg/mL), the MIC [9] is reported as 2 µM (≈ 4.73 µg/mL) and the MIC [3] is reported as 8 µM (≈ 18.9 µg/mL). It also gave an MIC [20] of 2 µM (≈ 4.73 µg/mL).

In the case of `CC(C)[C@H](NC(=O)[C@H](C)N)C(=O)N[C@@H](C)C(=O)N[C@H](C(=O)N[C@H](C(=O)NCC(=O)N[C@@H](CCC(N)=O)C(=O)N[C@@H](C)C(=O)N[C@@H](C)C(=O)N[C@H](C(=O)N[C@H](C(=O)N[C@H](C(=O)N[C@@H](CCCCN)C(N)=O)C(C)C)C(C)C)[C@@H](C)O)C(C)C)C(C)C` [AVAVVGQAATVVK], the MIC [21] is reported as no less than 128 µM, the MIC [22] is reported as no less than 128 µM and the MIC [23] is reported as no less than 128 µM. It also gave an MIC [24] of no less than 128 µM, an MIC [25] of no less than 128 µM and an MIC [26] of no less than 128 µM. For the same compound, the MIC [27] was no less than 128 µM, the MIC [28] was no less than 128 µM and the MIC [29] was no less than 128 µM. It also gave an MIC [30] of no less than 128 µM.
